Data on 25 compounds can be found in ChEMBL document CHEMBL5537123, “Discovery of triazole tethered thymol/carvacrol-coumarin hybrids as new class of α-glucosidase inhibitors with potent in vivo antihyperglycemic activities” (Eur J Med Chem, 2024).

For data set [1], the target named is T1, Alpha-glucosidase (Saccharomyces cerevisiae S288c, UniProt P53341+P38158+P07265). Description: Inhibition of Saccharomyces cerevisiae alpha-glucosidase using pNPG as substrate preincubated with compound for 20 mins followed by substrate addition measured after 1 hrs by absorbance based analysis. The class given is protein assay.
The next data set deals with T2, Alpha-amylase (Sus scrofa domesticus, UniProt Q7M328).
T2 sequence (Q7M328 whole entry): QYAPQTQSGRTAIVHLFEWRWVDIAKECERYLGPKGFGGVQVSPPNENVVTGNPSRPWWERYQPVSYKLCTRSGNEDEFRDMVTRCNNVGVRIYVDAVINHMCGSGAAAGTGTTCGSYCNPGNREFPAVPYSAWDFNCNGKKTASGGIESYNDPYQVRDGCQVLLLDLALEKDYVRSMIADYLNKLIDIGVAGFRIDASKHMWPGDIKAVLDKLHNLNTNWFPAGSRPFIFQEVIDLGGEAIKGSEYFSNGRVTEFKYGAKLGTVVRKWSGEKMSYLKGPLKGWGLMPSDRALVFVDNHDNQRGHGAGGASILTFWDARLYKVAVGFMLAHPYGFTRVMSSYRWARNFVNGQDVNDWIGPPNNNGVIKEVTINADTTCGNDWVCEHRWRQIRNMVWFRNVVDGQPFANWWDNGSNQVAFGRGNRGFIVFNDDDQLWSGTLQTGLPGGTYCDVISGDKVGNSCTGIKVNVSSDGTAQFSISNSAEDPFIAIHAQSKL
Nature of the data set: Inhibition of porcine pancreatic alpha-amylase using pNPG as substrate preincubated with compound for 20 mins followed by substrate addition measured after 1 hrs by absorbance based analysis.

Data set [2] in a line: Cytotoxicity against mouse L929 cells assessed reduction in cell viability incubated for 24 hrs by MTT assay. It counts as toxicity, cell-based.
Data set [3] in a line: Selectivity index, ratio of IC50 for inhibition of porcine pancreatic alpha-amylase using pNPG as substrate to IC50 for inhibition of Saccharomyces cerevisiae alpha-glucosidase using pNPG as substrate.
The nature of data set [4]: Inhibition of alpha-glucosidase (unknown origin). Also on record: species or system Homo sapiens.
The subject of a further data set is Origanum vulgare. Nature of the data set: Inhibition of Origanum vulgare alpha-glucosidase at 18 microg/ml relative to control. Particulars: dose 18.0 µg/ml.
In data set [5] the test system is Rattus norvegicus. Nature of the data set: Hypoglycemic activity in streptozotocin-induced diabetic Wistar rat model assessed as reduction in fasting blood glucose level at 10 mg/kg, po measured every 7 days for 28 days relative to control. It counts as functional. Also on record: scale not given: the % may be the effect or the level left. Particulars: time 7 day.

The subject of data set [6] is Rattus norvegicus. Nature of the data set: Hypoglycemic activity in streptozotocin-induced diabetic Wistar rat model assessed as decrease in blood glucose level at 10 mg/kg, po administered for 5 days and measured after 1 hr by maltose loading test relative to control. The class given is functional. Further details: scale not given: the % may be the effect or the level left. The following applies: time 121 hrs.

Data set [7] has as its system Rattus norvegicus. Description: Hypoglycemic activity in streptozotocin-induced diabetic Wistar rat model assessed as decrease in blood glucose level at 10 mg/kg, po administered for 5 days and measured after 1 hr by sucrose loading test relative to control. Also on record: scale not given: the % may be the effect or the level left. The class given is functional. Particulars: time 121 hrs.

Data set [8] is described as follows: Acute toxicity in Wistar rat assessed as lethal dose measured for 14 days. Particulars: in vivo, time 14 day.
In data set [9] the target is T1, Alpha-glucosidase. Nature of the data set: Mixed type inhibition of Saccharomyces cerevisiae alpha-glucosidase using pNPG as substrate assessed as inhibition constant preincubated for 20 mins followed by substrate addition measured after 1 hrs by Lineweaver-burk plot analysis. The class given is protein assay.
Data set [10] has as its system Rattus norvegicus. Nature of the data set: Hypoglycemic activity in streptozotocin-induced diabetic Wistar rat model assessed as decrease in blood glucose level at 20 mg/kg, po administered for 5 days and measured after 1 hr by sucrose loading test relative to control. It counts as functional. Particulars: time 121 hrs. Also on record: scale not given: the % may be the effect or the level left.

Data set [11] is described as follows: Toxicity in Wistar rat assessed as effect on body weight at 20 mg/kg, po measured for 28 days. Particulars: in vivo, 672 h, time 28 day. The class given is organism-based.
Data set [12] relates to Rattus norvegicus. Nature of the data set: Hypoglycemic activity in streptozotocin-induced diabetic Wistar rat model assessed as decrease in blood glucose level at 5 mg/kg, po administered for 5 days and measured after 1 hr by sucrose loading test relative to control. It counts as functional. Also on record: scale not given: the % may be the effect or the level left. The following applies: time 121 hrs.

Data set [13] deals with Rattus norvegicus. Description: Hypoglycemic activity in streptozotocin-induced diabetic Wistar rat model assessed as decrease in blood glucose level at 20 mg/kg, po administered for 5 days and measured after 1 hr by maltose loading test relative to control. Also on record: scale not given: the % may be the effect or the level left. The following applies: time 121 hrs. It counts as functional.

A short description of data set [14]: Acute toxicity in Wistar rat assessed as change in salivation at 300 mg/kg, po measured for 14 days. The class given is organism-based. The following applies: in vivo, 336 h, time 14 day.
For data set [15], the system named is Rattus norvegicus. Description: Hypoglycemic activity in streptozotocin-induced diabetic Wistar rat model assessed as decrease in blood glucose level at 5 to 20 mg/kg, po administered for 5 days and measured after 30 mins by glucometer analysis. It counts as functional, organism-based. The following applies: dose 5-20 mg/kg, time 7230.0 min.
Data set [16] can be described thus: Acute toxicity in Wistar rat assessed as change in salivation at 5 mg/kg, po measured for 14 days. The class given is organism-based. Particulars: in vivo, 336 h, time 14 day.
Data set [17] in a line: Acute toxicity in Wistar rat assessed as mortality rate at 300 mg/kg, po measured for 14 days. Particulars: in vivo, time 14 day, read-out: Activity. It counts as organism-based.
Data set [18] concerns Rattus norvegicus. Nature of the data set: Hypoglycemic activity in streptozotocin-induced diabetic Wistar rat model assessed as reduction in fasting blood glucose level at 20 mg/kg, po measured every 7 days for 28 days relative to control. The class given is functional. Also on record: scale not given: the % may be the effect or the level left. Particulars: time 7 day.
In data set [19] the test system is Rattus norvegicus. Description: Hypoglycemic activity in streptozotocin-induced diabetic Wistar rat model assessed as decrease in blood glucose level at 5 mg/kg, po administered for 5 days and measured after 1 hr by maltose loading test relative to control. The class given is functional. Also on record: scale not given: the % may be the effect or the level left. The following applies: time 121 hrs.

A short description of data set [20]: Acute toxicity in Wistar rat assessed as change in salivation at 50 mg/kg, po measured for 14 days. It counts as organism-based. The following applies: in vivo, 336 h, time 14 day.

Each structure is given as a SMILES string. Active and inactive are the calls of the source. No cut-off for these calls is given here.

What is called IC50 is the midpoint of a concentration-inhibition curve. Regarding `Cc1ccc(C(C)C)c(OCc2cn(CCCCOc3ccc4ccc(=O)oc4c3)nn2)c1`, the IC50 on Alpha-glucosidase [1] and at Alpha-amylase was over 100 µM throughout.
As for `Cc1ccc(C(C)C)cc1OCc1cn(CCCCOc2ccc3ccc(=O)oc3c2)nn1`, the IC50 on Alpha-glucosidase [1] and at Alpha-amylase was over 100 µM each time.
`Cc1ccc(C(C)C)c(OCc2cn(CCCCCCOc3ccc4ccc(=O)oc4c3)nn2)c1`: the IC50 at Alpha-glucosidase [1] and at Alpha-amylase was over 100 µM each time.
Regarding `Cc1ccc(C(C)C)cc1OCc1cn(CCCCCCOc2ccc3ccc(=O)oc3c2)nn1`, the IC50 at Alpha-glucosidase [1] and on Alpha-amylase was over 100 µM in each case.
For `Cc1ccc(C(C)C)c(OCc2cn(CCOc3ccc4ccc(=O)oc4c3)nn2)c1`, the IC50 was 56.41 µM on Alpha-glucosidase [1] and over 100 µM at Alpha-amylase.
For `Cc1ccc(C(C)C)c(OCc2cn(CCCCCOc3cc(=O)oc4ccccc34)nn2)c1`, in data set [2], the IC50 at 24 h was over 100 µM. The IC50 was 7.53 µM on Alpha-glucosidase [1] and 57.3 µM at Alpha-amylase. For the same compound, the Ratio IC50 in data set [3] stood at 7.61.
Take `Cc1ccc(C(C)C)c(OCc2cn(CCCCCCOc3cc(=O)oc4ccccc34)nn2)c1`: the half-maximal inhibitory concentration (IC50) was 16.32 µM on Alpha-glucosidase [1] and over 100 µM at Alpha-amylase.
One may read the inhibition as the change of the read-out against control, counted positive when it falls. `Cc1ccc(C(C)C)c(OS(=O)(=O)c2ccc(F)cc2)c1`: in data set [4], the IC50 was found to be 2.3 µM. This compound also came in with an inhibition in the data set on Origanum vulgare of 57.7%.
As for `C[C@H]1O[C@H](O[C@H]2[C@H](O)[C@@H](O)[C@@H](O[C@H]3[C@H](O)[C@@H](O)C(O)O[C@@H]3CO)O[C@@H]2CO)[C@H](O)[C@@H](O)[C@@H]1N[C@H]1C=C(CO)[C@@H](O)[C@H](O)[C@H]1O` (some centres not stated) [ACARBOSE], the Activity with Rattus norvegicus [5] is reported as 25.86%; in the data set with Rattus norvegicus [6], 53.01%; in the data set with Rattus norvegicus [7], 56.31%.
`Cc1ccc(C(C)C)c(OCc2cn(CCCCCOc3ccc4ccc(=O)oc4c3)nn2)c1`: the IC50 on Alpha-glucosidase [1] and at Alpha-amylase was over 100 µM in each case.
Turning to `Cc1ccc(C(C)C)c(OCc2cn(CCCOc3ccc4ccc(=O)oc4c3)nn2)c1`, the results for the half-maximal inhibitory concentration (IC50) at Alpha-glucosidase [1] and at Alpha-amylase were 72.91 µM and over 100 µM, respectively.
As for `O=C(Cn1cc(COc2ccc3ccc(=O)oc3c2)nn1)NCc1cccc(Br)c1`, in data set [4], half-maximal inhibition (IC50) required 0.543 µM.
On to `Cc1ccc(C(C)C)cc1OCc1cn(CCCCCOc2ccc3ccc(=O)oc3c2)nn1`, for which the IC50 at Alpha-glucosidase [1] and at Alpha-amylase was over 100 µM in each case.
Consider `Cc1ccc(C(C)C)cc1OCc1cn(CCCOc2ccc3ccc(=O)oc3c2)nn1`, for which the 50% inhibitory concentration (IC50) on Alpha-glucosidase [1] and on Alpha-amylase was over 100 µM each time.
As to `Cc1ccc(C(C)C)c(OCc2cn(CCCCOc3cc(=O)oc4ccccc34)nn2)c1`, the IC50 at Alpha-glucosidase [1] is 25.36 µM; on Alpha-amylase, 77.5 µM. For the same compound, the Ratio IC50 in [3] is 3.06.
With `Cc1ccc(CNC(=O)Cn2cc(COc3cc(=O)oc4ccccc34)nn2)cc1`, in data set [4], 3.5 µM corresponded to half-maximal inhibition (IC50).
As to `Cc1ccc(C(C)C)cc1OCc1cn(CCOc2ccc3ccc(=O)oc3c2)nn1`, the IC50 was 64.21 µM on Alpha-glucosidase [1] and over 100 µM at Alpha-amylase.
On to `Cc1ccc(C(C)C)cc1OS(=O)(=O)c1ccc(F)cc1`, for which half-maximal inhibition in [4] (IC50) was put at 2.56 µM. In the data set on Origanum vulgare, this compound registered an inhibition of 57.7%.
`Cc1ccc(C(C)C)cc1OCc1cn(CCCCCCOc2cc(=O)oc3ccccc23)nn1` yielded an IC50 at 24 h in [2] of over 100 µM. For the same compound, the IC50 at Alpha-glucosidase [1] is 9.23 µM; on Alpha-amylase, 69.3 µM. Also, in data set [3], the Ratio IC50 was 7.51.
With `Cc1ccc(C(C)C)c(OCc2cn(CCOc3cc(=O)oc4ccccc34)nn2)c1`, the IC50 at Alpha-glucosidase [1] is 61.24 µM; at Alpha-amylase it was over 100 µM.
As to `Cc1ccc(C(C)C)cc1OCc1cn(CCOc2cc(=O)oc3ccccc23)nn1`, the figures for the IC50 on Alpha-glucosidase [1] and on Alpha-amylase were 78.69 µM and over 100 µM, respectively.
As for `Cc1ccc(C(C)C)cc1OCc1cn(CCCCOc2cc(=O)oc3ccccc23)nn1`, the IC50 on Alpha-glucosidase [1] was 26.48 µM; at Alpha-amylase it was over 100 µM.
In general, LD50 refers to the dose at which mortality reaches 50%. What is called Ki is a measure of affinity in units of concentration, obtained from inhibition or displacement. With `Cc1ccc(C(C)C)cc1OCc1cn(CCCCCOc2cc(=O)oc3ccccc23)nn1`, the Activity in the data set on Rattus norvegicus [5] is 54.69%; in the data set on Rattus norvegicus [10], 60.23%; in data set [11], “Non-Toxic”; with Rattus norvegicus [12] it was 25.24%; in the data set with Rattus norvegicus [13] it was 70.12%; in data set [14], “Non-Toxic”. Further, the Activity entry is on record as “Non-Toxic” in data set [16]; 62.23% in the data set with Rattus norvegicus [18]; 62.65% with Rattus norvegicus [6]; 59.65% in the data set on Rattus norvegicus [7]; 28.91% with Rattus norvegicus [19]; “Non-Toxic” in [20]. Further, the LD50 at 336 h in data set [8] stood at 300 mg/kg. Moreover, in data set [2], the IC50 at 24 h is over 100 µM. For the same compound, the concentration for half-maximal inhibition (IC50) at Alpha-glucosidase [1] came to 4.32 µM; on Alpha-amylase it was 37.4 µM. For the same compound, the Ki on Alpha-glucosidase [9] stood at 0.832 µM. Besides, in the data set with Rattus norvegicus [15], the result was Active. Besides, the mortality at 336 h in data set [17] was determined as 67%. The Ratio IC50 in data set [3] was determined as 8.65.
`Cc1ccc(C(C)C)cc1OCc1cn(CCCOc2cc(=O)oc3ccccc23)nn1`: the half-maximal inhibitory concentration (IC50) at Alpha-glucosidase [1] is 68.51 µM; at Alpha-amylase, over 100 µM.
On to `Cc1ccc(C(C)C)c(OCc2cn(CCCOc3cc(=O)oc4ccccc34)nn2)c1`, for which the IC50 is 37.59 µM at Alpha-glucosidase [1] and over 100 µM on Alpha-amylase.
